# Source: paper PMC9459403, “New inhibitors of cathepsin V impair tumor cell proliferation and elastin degradation and increase immune cell cytotoxicity” (Computational and Structural Biotechnology Journal, 2022)
# Columns and labels:
# Format in all cases: cell-based, human
# MCF7 cells = test: Proliferation assay (CFSE-labeled cells, flow cytometry); conditions: 72 h; E-64d 10 μM, pepstatin 20 μM, LHVS 10 nM, CLIK-148 1 μM
# Protocol: To assess the effect of cathepsin V inhibitors on cell proliferation, MCF7 cells were fluorescently labeled with carboxyfluorescein succinimidyl ester (CFSE; ImmunoChemistry Technologies, Bloomington, MN, USA) in PBS for 15 min at room temperature according to the manufacturer’s instructions. Cells were washed with PBS, resuspended in complete medium, seeded (at 4 × 10^4 cells/well) into 24-well plates, and allowed to adhere overnight. Cells were then treated with the following inhibitors: compound 7 (10 μM), E-64d (10 μM), CLIK-148 (1 μM), LHVS (10 nM), pepstatin (20 μM), their combinations, or DMSO (0.1 %) in 500 μL of medium for 72 h at 37 °C. To prepare cells for flow cytometry, cells were detached and transferred to round-bottomed polystyrene tubes and washed with PBS. Before measurement, 7-aminoactinomycin D (7-AAD; ImmunoChemistry Technologies, Bloomington, MN, USA) was added according to the manufacturer’s instructions to exclude dead cells. Therefore, the green fluorescence arising from CFSE was monitored only for viable cells. The measurement was performed using a FACSCalibur instrument (BD Biosciences, San Jose, CA, USA).
# [1] = test system: U-937-derived macrophages; test: Intracellular elastin-FITC degradation; conditions: 10 μM, 24 h, vs DMSO
# Protocol: To evaluate the effect of the inhibitors on the elastolytic activity of cathepsin V, we assessed the intracellular degradation of elastin-FITC, a soluble bovine neck ligament elastin that is heavily labeled with FITC such that the fluorescence of the conjugate is quenched. Upon proteolysis, fluorescence is recovered and can be detected. U-937 cells, differentiated into macrophage-like cells, were seeded (at 1 × 10^5 cells/well) into 24-well plates with 500 μL of medium supplemented with 50 nM PMA. Inhibitors or DMSO (0.1 %) and elastin-FITC (10 μg/mL; AnaSpec, Fermont, CA, USA) were added to the medium and incubated for 24 h at 37 °C. Cells were detached and washed with PBS, and propidium iodide (BD Bioscience) was added to exclude dead cells. Therefore, green fluorescence arising from elastin-FITC degradation was monitored only for viable cells. The measurement was performed using a FACSCalibur instrument (BD Biosciences).
# [2] = test system: cystatin F in U-937 cells; test: Western blot of cystatin F dimer-to-monomer ratio; conditions: U-937 cell lysates, 6 h treatment, 10 and 20 μM, vs control
# Protocol: Cells were treated with E-64d or compound 7 (both at 10 µM or 20 µM) for 6 h. After treatment, whole-cell lysates were prepared in RIPA buffer supplemented with cOmplete™ Protease Inhibitor Cocktail (Roche, Basel, Switzerland) and centrifuged at 16 000 × g for 20 min at 4 °C. Total protein concentration was determined using the DC assay (Biorad, Hercules, CA, USA). Proteins were separated by non-reducing SDS-PAGE and transferred to a nitrocellulose membrane using the TransBlot Turbo System (Biorad). After blocking, the membranes were incubated with primary antibodies overnight at 4 °C and with secondary antibodies for 1 h at room temperature. Bands were visualized using Clarity Max Western ECL substrate (Biorad), and protein loading was checked using Stain Free technology (Biorad). Images were acquired using the ChemiDoc ML Imaging System (Biorad), and quantification analysis was performed using Image Lab software (Biorad).
# The following primary antibodies were used: rabbit anti-cystatin F (1:375, HPA040442, Sigma), goat anti-cathepsin V (1:200, AF 1080, R&D, USA), and mouse anti-GAPDH (1:3000, 10494-I-AP, Proteintech, USA). […]
# [3] = test system: NK-92 effector cells on target K-562 cells; test: Calcein AM release assay (cytotoxicity); conditions: effector cells treated 10 µM, 6 h
# Protocol: (§1) Effector cells (NK-92 or TALL-104; 1 × 10^6/ml) were treated with E-64d (10 µM) or compound 7 (10 µM) for 6 h. NK-92 cells were pre-treated with 1000 IU IL2/mL overnight prior to the addition of inhibitors. Effector cells were added to a 96-well U-bottom plate to achieve a selected effector-to-target ratio (E:T). Target K-562 cells were labelled with 15 µM Calcein-AM (Sigma) in serum-free RPMI 1640 medium for 30 min at 37 °C. Cells were then washed twice and resuspended in complete RPMI 1640 medium. Target cells (n = 5000) were added to the effectors. The plate was centrifuged at 200 × g for 1 min and incubated at 37 °C and 5 % CO2 for 4 h. After incubation, the plate was centrifuged at 700 × g for 5 min. The supernatant (50 µL) was transferred to a new microtiter plate to measure the fluorescence of the released Calcein-AM with a Tecan M1000 microtiter plate reader using 496 nm excitation and 516 nm emission filters. The percentage of cytotoxicity was calculated as follows: 100(test release-spontaneous release)/(total release-spontaneous release). Spontaneous release was measured in wells containing only target cells. For total release, 2 % Triton X-100 was added to the wells to achieve lysis of target cells. Lytic units (LU) were calculated using the inverse of the number of effector cells needed to lyse 30 % of the target cells multiplied by 100.
# [4] = test system: TALL-104 effector cells on target K-562 cells; test: Calcein AM release assay (cytotoxicity); conditions: effector cells treated 10 µM, 6 h
# Protocol: as §1
smiles,measurement,setting,value
"CCOC(=O)[C@H]1O[C@@H]1C(=O)N[C@@H](CC(C)C)C(=O)NCCC(C)C [Compound E-64d, reference compound]",effect on cell proliferation (relative CFSE fluorescence intensity vs DMSO),MCF7 cells,no effects on cell proliferation
same,decrease of elastin-FITC degradation,[1],18.4 ± 7.0%
same,cystatin F dimer-to-monomer ratio,[2],increased
same,cytotoxicity of NK-92 cells (target cell killing),[3],decreased cytotoxic function
same,cytotoxicity of TALL-104 cells (target cell killing),[4],decreased cytotoxic function
